Four compounds from article PMC12212144, “The VanS sensor histidine kinase from type-B vancomycin-resistant enterococci recognizes vancomycin directly” (The Journal of Biological Chemistry, 2025) can be followed below.

Assay [1] addresses T1, cVanSB (cytosolic domain of VanSB) (Enterococcus faecalis, UniProt Q47745).
T1 construct: cytosolic domain M159-L447, C-terminal His6 (pETCH), expressed in E. coli
Put plainly: autophosphorylation with ATPγS, anti-thiophosphohistidine (PNBM) Western blot. In kind it is biochemical. The settings on record: 1 mM ATPγS, 10 mM MgCl2, pH 7.4; not affected by vancomycin. (In general: A western blot detects proteins with antibodies after separation by electrophoresis.)

Assay [2] has as its target T2, single-copy VanSB periplasmic sensor domain (Enterococcus faecalis, UniProt Q47745). In words: fluorescence anisotropy. Type of assay: binding. Further details: periplasmic sensor domain Q31-G132, single copy; expressed in E. coli as TEV-cleavable 6xHis-MBP fusion, tag removed. The settings on record: labelled compound, 100 nM; 20 mM Tris pH 7.5, 100 mM NaCl, 0.01% Triton X-100, room temperature. Background: In fluorescence polarisation assays a small probe gives low polarisation when free and higher when bound to something large.

Assay [3] addresses T3, tandem VanSB periplasmic sensor domain (Enterococcus faecalis, UniProt Q47745). In words: fluorescence anisotropy. Type of assay: binding. On the set-up: two copies of periplasmic domain Q31-G132 in one polypeptide joined by GSGGS linker; expressed in E. coli as TEV-cleavable 6xHis-MBP fusion, tag removed. The following applies: labelled compound, 100 nM; 20 mM Tris pH 7.5, 100 mM NaCl, 0.01% Triton X-100, room temperature.

Assay [4] concerns the target full-length VanSB (in nanodiscs) (Enterococcus faecalis, UniProt Q47745). In words: biochemical.
Assay [5] addresses T2, single-copy VanSB periplasmic sensor domain. In words: biochemical.
Assay [6] addresses T3, tandem VanSB periplasmic sensor domain. In words: biochemical.

T3 sequence (Q47745 31-132): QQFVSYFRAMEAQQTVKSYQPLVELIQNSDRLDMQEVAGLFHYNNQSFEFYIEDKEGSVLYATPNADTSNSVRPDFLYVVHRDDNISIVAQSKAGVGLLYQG
T2 sequence (Q47745 31-132): as above
Sequence of full-length VanSB (in nanodiscs) (Q47745 whole entry, the tested form may be a part): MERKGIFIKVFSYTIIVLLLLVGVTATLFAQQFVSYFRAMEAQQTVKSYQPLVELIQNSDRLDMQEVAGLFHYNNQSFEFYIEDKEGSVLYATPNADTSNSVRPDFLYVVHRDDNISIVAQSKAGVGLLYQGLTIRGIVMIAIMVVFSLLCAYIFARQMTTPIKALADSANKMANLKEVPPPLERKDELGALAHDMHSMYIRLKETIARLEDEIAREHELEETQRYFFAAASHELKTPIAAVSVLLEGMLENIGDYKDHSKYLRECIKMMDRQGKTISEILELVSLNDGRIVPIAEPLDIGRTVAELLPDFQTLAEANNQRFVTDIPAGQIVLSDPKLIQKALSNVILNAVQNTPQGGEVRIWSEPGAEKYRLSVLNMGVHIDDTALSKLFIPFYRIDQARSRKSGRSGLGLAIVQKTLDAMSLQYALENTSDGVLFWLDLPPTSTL
T1 sequence (Q47745 159-447): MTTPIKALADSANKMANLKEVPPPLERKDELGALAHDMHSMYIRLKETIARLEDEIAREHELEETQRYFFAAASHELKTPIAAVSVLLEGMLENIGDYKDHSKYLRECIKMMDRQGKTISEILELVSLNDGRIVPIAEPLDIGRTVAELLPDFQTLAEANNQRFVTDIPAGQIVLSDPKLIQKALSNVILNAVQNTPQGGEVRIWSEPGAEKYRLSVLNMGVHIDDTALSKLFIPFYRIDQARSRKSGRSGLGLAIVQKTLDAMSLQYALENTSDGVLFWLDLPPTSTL

`Nc1ncnc2c1ncn2[C@@H]1O[C@H](COP(=O)(O)OP(=O)(O)OP(O)(O)=S)[C@@H](O)[C@H]1O` [ATPγS]: the “autophosphorylation with ATPγS, anti-thiophosphohistidine (PNBM) Western blot” value in assay [1] was “autophosphorylation time course for full-length VanSB (reconstituted in nanodiscs) and its cytosolic domain”.

Consider `CN[C@H](CC(C)C)C(=O)N[C@H]1C(=O)N[C@@H](CC(N)=O)C(=O)N[C@H]2C(=O)N[C@H]3C(=O)N[C@H](C(=O)N[C@H](C(=O)O)c4cc(O)cc(O)c4-c4cc3ccc4O)[C@H](O)c3ccc(c(Cl)c3)Oc3cc2cc(c3O[C@@H]2O[C@H](CO)[C@@H](O)[C@H](O)[C@H]2O[C@H]2C[C@](C)(NC(=O)CCc3ccc4n3[B-](F)(F)[N+]3=C(C)C=C(C)C3=C4)[C@H](O)[C@H](C)O2)Oc2ccc(cc2Cl)[C@H]1O` [BODIPY-FL-vancomycin], for which the Kd in assay [2] was 20.3 µM; in assay [3], 10.7 µM.

In the case of `CN[C@H](CC(C)C)C(=O)N[C@H]1C(=O)N[C@@H](CC(N)=O)C(=O)N[C@H]2C(=O)N[C@H]3C(=O)N[C@H](C(=O)N[C@H](C(=O)O)c4cc(O)cc(O)c4-c4cc3ccc4O)[C@H](O)c3ccc(c(Cl)c3)Oc3cc2cc(c3O[C@@H]2O[C@H](CO)[C@@H](O)[C@H](O)[C@H]2O[C@H]2C[C@](C)(N)[C@H](O)[C@H](C)O2)Oc2ccc(cc2Cl)[C@H]1O` [vancomycin], in assay [4], the concentration for a half-maximal effect (EC50) was found to be 43 ± 12.5 µM. Also, the dissociation constant Kd in assay [5] amounted to 20.7 µM; in assay [6] it was 11 µM.

AF488-vancomycin displayed a Kd in assay [3] of 11 µM.

In general, Kd refers to the concentration at which binding is half-saturated. Higher therefore signals a looser complex. As a reminder, the EC50 is the concentration giving half of the maximal effect. Lower therefore signals an effect from little substance.
